Where “and” joins values, the source holds several entries; their conditions need not be identical. Equal entries are not always repeated. Where two headings read alike, the source gives them in different places.
What was measured:
Format in all cases: binding
MpPA14 [1] = molecular target: T1, MpPA14 (Marinomonas primoryensis, UniProt A1YIY3); assay: Dextran-based comparative competition assay (MpPA14)
Text: To gain insight into the binding specificity of MpPA14, we investigated the relative affinity of various monosaccharides for the lectin by a comparative competition assay ([12]). MpPA14 bound to Superdex resin was competitively released into solution by the progressive addition of free sugars. The released protein concentrations measured by absorbance at 280 nm were plotted as a function of free sugar concentration to produce semiquantitative binding curves (Fig. 1A and B). The apparent dissociation constant (Kdapp) calculated from these binding curves was used as a relative measure of affinity for each assayed sugar (Table 1). […] D-Ribose bound […] more strongly than its derivative 2-deoxy-D-ribose (Kdapp of 6.8 mM as opposed to 18 mM; Fig. 1B and Table 1).
The dextran resin competition assay was performed as previously described for MhPA14 ([12]). Briefly, Superdex 200 (S200) resin was washed twice with 50 mM Tris-HCl (pH 9), 150 mM NaCl, and 5 mM CaCl2. One ml of 1 mg/ml MpPA14 with green fluorescent protein (GFP) fused to its N terminus (GFP-MpPA14) or VcPA14 labeled with FITC was suspended with 300 μl of equilibrated Superdex 200 (S200) resin. Following an incubation period with gentle mixing, the S200 resin bound with GFP-MpPA14 was pelleted by centrifugation. The pellet was washed twice with 50 mM Tris-HCl (pH 9), 150 mM NaCl, and 5 mM CaCl2, and the A280 of the supernatant from the second wash was used as the baseline reading. Next, after resuspension in the same buffer, aliquots of 1.67 μmol saccharide were sequentially added to the solution six or seven times, with the A280 of the supernatant being measured after each addition to quantify the release of lectin. The final addition of saccharide was […]. Data from the dextran affinity assay were plotted using GraphPad Prism after subtracting the background. Next, the data were fitted to a nonlinear regression of one-site-specific binding, which follows the model y/Bmax = x/(Kd + x), with Bmax as the maximum specific binding and Kd as the equilibrium binding constant.

MpPA14 [2] = molecular target: T1, MpPA14; assay: Second glycan array (32 polysaccharides, Max Planck Institute for Marine Microbiology); conditions: for Binding of MpPA14 (RFUs): normalized signal intensity, maximal mean set to 100, cutoff of 5
Text: To expand the repertoire of glycans beyond glucans and mannans, we performed a second focused microarray composed of 32 polysaccharides found in microbes such as fungi and bacteria, as well as in macroalgae and plants (Fig. 4B). […] In addition, MpPA14 interacted avidly with fucoidans from macroalgae. […] This conformer is not present in the arabinan polymer composed of 1,5-linked α-L-arabino-furanoses, which are then not free to transition to the pyranose form. Similarly, since the MpPA14 binds galactose via the 1,2-diol (β-anomer) (Fig. 3H), the lectin cannot interact with galactans, as they are polymers of β-1,4-D-galactose (Fig. 4B and Table S5).
The second glycan array was performed at the Max Planck Institute for Marine Microbiology (Bremen, Germany). The array contained duplicates of 32 polysaccharides, including those from macroalgae, bacteria, fungi, and land plants (see details in Table S5 in the supplemental material). N-terminally His-tagged MpPA14 was incubated with the array, and binding of the lectin to the polysaccharides was detected by an anti-His tag secondary antibody conjugated to alkaline phosphatase (Sigma-Aldrich). Microarray probing and quantification were performed as previously described ([45]). Maximal mean (average of the duplicates) signal intensity was set to 100, and the rest of values were normalized accordingly. A cutoff of 5 was applied ([58]).

MpPA14 [3] = molecular target: T1, MpPA14; assay: First glycan array (fungal, bacterial and plant polysaccharide array set 2, Imperial College); conditions: for binding to MpPA14 in first glycan array (in words): GFP-MpPA14; for Binding of MpPA14 (RFUs): GFP-MpPA14 50 μg/ml, Alexa Fluor 647 anti-GFP antibody, mean of duplicates
[4] = GFP-MpPA14 bound to Superdex 200 resin released by free sugar, A280, pH 9, 5 mM CaCl2, – = no detectable binding (footnote a), read-out: Kdapp (apparent dissociation constant)

T1 sequence (A1YIY3 entry or part of it): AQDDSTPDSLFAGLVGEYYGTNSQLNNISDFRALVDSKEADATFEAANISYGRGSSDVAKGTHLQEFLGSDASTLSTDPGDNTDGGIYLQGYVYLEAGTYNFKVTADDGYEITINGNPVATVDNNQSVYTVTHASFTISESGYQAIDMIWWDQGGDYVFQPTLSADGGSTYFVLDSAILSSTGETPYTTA

## OC1OC[C@H](O)[C@H](O)[C@H]1O (mixture of isomers) [L-Arabinose]
MpPA14 [1]
  Kd: 2.2 mM

## O=CC[C@@H](O)[C@H](O)[C@H](O)CO [2-Deoxy-glucose, 2-deoxy-glucose]
MpPA14 [1]
  Kd: 1.37 mM and 1.4 mM

## O=CC[C@H](O)[C@H](O)CO [2-Deoxy-ribose, 2-deoxy-D-ribose]
MpPA14 [1]
  Kd: 18 mM

## CO[C@@H]([C@H](O)[C@H](O)CO)[C@@H](O)C=O [3-O-methyl-glucose, 3-O-methyl-D-glucose]
MpPA14 [1]
  Kd: 5.7 mM

## O=C[C@H](O)[C@@H](O)[C@@H](O)[C@H](O)CO [Galactose, D-galactose]
MpPA14 [1]
  Kd: 4.1 mM

## O[C@H]1[C@H](O)[C@@H](O)[C@H](O)[C@@H](O)[C@H]1O [Inositol, myo-inositol]
MpPA14 [1]
  Kd: 2.7 mM

## OC[C@H]1OC(O)[C@@H](O)[C@@H](O)[C@@H]1O (stereo partly drawn) [Mannose, D-Mannose]
MpPA14 [1]
  Kd: 1.7 mM

## COC1OC(CO)C(O)C(O)C1O [Methyl-α-glucose, methyl-α-D-glucose]
MpPA14 [1]; [4]
  Kd: 2.1 mM

## O=C[C@H](O)[C@H](O)[C@H](O)CO [Ribose, D-Ribose]
MpPA14 [1]; [4]
  Kd: 6.8 mM

## O=C[C@H](O)[C@@H](O)[C@H](O)CO [Xylose]
MpPA14 [1]
  Kd: 11 mM

## Alginate
MpPA14 [2]
  Binding of MpPA14 (RFUs): 22 RFUs

## Arabinoxylan
MpPA14 [2]
  Binding of MpPA14 (RFUs): 0 RFUs

## Carboxymethyl cellulose (β-(1→4)-D-glucan)
MpPA14 [2]
  Binding of MpPA14 (RFUs): 28 RFUs

## Curdlan (β-(1→3)-D-glucan)
MpPA14 [3]
  binding to MpPA14 in first glycan array (in words): negligible or no detectable binding
  Binding of MpPA14 (RFUs): 167 RFUs

## Dextran (α-(1→6)-D-glucan backbone)
MpPA14 [3]
  binding to MpPA14 in first glycan array (in words): bound most avidly
  Binding of MpPA14 (RFUs): 41390 RFUs

## Fucoidan [Fucoidan (Ascophyllum nodosum)]
MpPA14 [2]
  binding to MpPA14 in second glycan array (in words): strongest MpPA14-binding fucoidans
  Binding of MpPA14 (RFUs): 77 RFUs

## Fucoidan [Fucoidan (Cladosiphon)]
MpPA14 [2]
  binding to MpPA14 in second glycan array (in words): strongest MpPA14-binding fucoidans
  Binding of MpPA14 (RFUs): 100 RFUs

## Fucoidan [Fucoidan (Fucus serratus)]
MpPA14 [2]
  Binding of MpPA14 (RFUs): 53 RFUs

## Fucoidan [Fucoidan (Fucus vesiculosus)]
MpPA14 [2]
  Binding of MpPA14 (RFUs): 29 RFUs

## Fucoidan [Fucoidan (Laminaria)]
MpPA14 [2]
  Binding of MpPA14 (RFUs): 69 RFUs

## Fucoidan [Fucoidan (Sargassum)]
MpPA14 [2]
  binding to MpPA14 in second glycan array (in words): strongest MpPA14-binding fucoidans
  Binding of MpPA14 (RFUs): 84 RFUs

## GN6-AO (chitin, β-1→4-GlcNAc)
MpPA14 [3]
  binding to MpPA14 in first glycan array (in words): negligible or no detectable binding
  Binding of MpPA14 (RFUs): 178 RFUs

## Galactofucan
MpPA14 [2]
  Binding of MpPA14 (RFUs): 40 RFUs

## Galactomannan (β-(1→4)-D-mannan backbone)
MpPA14 [2]
  binding to MpPA14 in second glycan array (in words): did not bind
  Binding of MpPA14 (RFUs): 0 RFUs

## Glucomannan (β-(1→4)-D-mannose and D-glucose backbone)
MpPA14 [2]
  Binding of MpPA14 (RFUs): 0 RFUs

## Glucurono-XyloMannan (α-(1→3)-Mannan with Xyl, GlcA and Fuc branches)
MpPA14 [3]
  binding to MpPA14 in first glycan array (in words): negligible or no detectable binding
  Binding of MpPA14 (RFUs): 75 RFUs
MpPA14 [2]
  Binding of MpPA14 (RFUs): 0 RFUs

## Grifolan (β-(1→3)-D-glucan backbone, highly branched oligomers)
MpPA14 [3]
  binding to MpPA14 in first glycan array (in words): bound most avidly
  Binding of MpPA14 (RFUs): 39935 RFUs

From publication PMC8092209, “Structural Basis of Ligand Selectivity by a Bacterial Adhesin Lectin Involved in Multispecies Biofilm Formation” (mBio, 2021)
